Data taken from US20250188082A1, “Use of Hypoxanthine Compound In Preparation of Drug For Treating Pulmonary Fibrosis” (Sichuan Yiasuo Pharmaceutical Technology Co., Ltd., priority 2022, published 2025).

Experiments:
Assay type in all cases: in vivo, C57BL/6 mice
[1] = system: mycoplasma-induced pulmonary fibrosis model (MPFH strain); assay: Mycoplasma-induced pulmonary fibrosis model; settings: 120 mg/kg/d intragastric, 14 days; for Leucocyte / Lymphocyte / Neutrophil: MPFH mycoplasma + bleomycin, once a day, from two weeks after model; for Ashcroft scores: mycoplasma + bleomycin, lung tissue HE
From the text: Experimental method: an in-vivo mycoplasma-induced pulmonary fibrosis model was established: C57BL/6 mice (with weights being 22-25 g) were randomly and evenly divided into a plurality of groups, including blank control group, model group, Nintedanib positive control group, hypoxanthine analogue A group, hypoxanthine analogue B group, hypoxanthine analogue C group, compound 1 group, compound 2 group . . . compound 12 group, with 9 mice in each group. Before a model was established, the mice were anesthetized with diethyl ether. In addition to that the mice in blank control group with instilled with 100 μL of normal saline nasally, the mice in other groups with slowly instilled with an equal volume of a MPFH strain solution (containing 1×10^7 mL^−1 MPFH strain) to the nasal cavity, for consecutive 3 days, and inhaled the MPFH strain solution into bronchi. After instillation with mycoplasmas through tracheas, the mice received 5 mg/kg bleomycin through tracheas to induce their pulmonary fibrosis. After the model was established for two weeks, the mice in each group were intragastrically administrated for intervention for consecutive 14 days; the mice in blank control group and model group intragastrically received an equal dosage of normal saline as those in drug groups; the mice in Nintedanib positive control group received Nintedanib (120 mg/kg); the mice in hypoxanthine analogue A group, hypoxanthine analogue B group and hypoxanthine analogue C group respectively received hypoxanthine analogue A (120 mg/kg/d), hypoxanthine analogue B (120 mg/kg/d) and hypoxanthine analogue C (120 mg/kg/d); and the mice in compound 1 group, compound 2 group . . . compound 12 group respectively received compound 1 (120 mg/kg/d), compound 2 (120 mg/kg/d) . . . compound 12 (120 mg/kg/d) prepared in example 1. The mice were administrated once a day to be treated for consecutive 14 days. The mice were observed every day, and their weights and death conditions were recorded. On the last day of administration, the mice were sacrificed; and blood was taken from eyeballs and kept at −80° C. for detecting blood routine indexes. Meanwhile, lungs were lavaged with normal saline and separated to collect lavage fluids for detecting counts and classes of leucocytes; and lung tissues were taken for HE straining and Ashcroft scoring on the extent of pulmonary fibrosis.

[2] = system: influenza A virus-induced pulmonary fibrosis model (FM1 strain of influenza A (H1N1) virus); assay: Influenza A virus-induced pulmonary fibrosis model; settings: 120 mg/kg/d intragastric, 14 days; for Ashcroft scores: influenza A virus + bleomycin, lung tissue HE; for IL-1β / IL-6 / NF-κB / TNF-α: serum, influenza A (H1N1) FM1 + bleomycin, from two weeks after model
From the text: Experimental method: an in-vivo influenza A virus-induced pulmonary fibrosis model was established: C57BL/6 mice (with weights being 22-25 g) were randomly and evenly divided into a plurality of groups, including blank control group, model group, Nintedanib positive control group, hypoxanthine analogue A group, hypoxanthine analogue B group, hypoxanthine analogue C group, compound 1 group, compound 2 group . . . compound 12 group, with 9 mice in each group. On Day 1, the mice in blank control group were instilled with normal saline nasally, and the mice in other groups were all infected with a FM1 strain of an influenza A (H1N1) virus 30 (μL) through nasal instillation. On Day 2, the mice received 5 mg/kg bleomycin through tracheas to induce their pulmonary fibrosis. After the model was established for two weeks, the mice in each group were intragastrically administrated for intervention for consecutive 14 days; the mice in blank control group and model group intragastrically received the same dosage of the normal saline as those in drug groups; the mice in Nintedanib positive control group received Nintedanib (120 mg/kg); the mice in hypoxanthine analogue A group, hypoxanthine analogue B group and hypoxanthine analogue C group respectively received hypoxanthine analogue A (120 mg/kg/d), hypoxanthine analogue B (120 mg/kg/d) and hypoxanthine analogue C (120 mg/kg/d); and the mice in compound 1 group, compound 2 group . . . compound 12 group respectively received compound 1 (120 mg/kg/d), compound 2 (120 mg/kg/d) . . . compound 12 (120 mg/kg/d) prepared in example 1. After administration for consecutive 14 days, the mice were observed every day, and their weights and death conditions were recorded. After administration, blood was taken from eyeballs for immediately detecting the expression levels of NF-κB, TNF-α, IL-1 and IL-6 in serum, and lung tissues were taken for HE detection and Ashcroft scoring.

[3] = system: bleomycin-induced pulmonary fibrosis model; assay: Advanced pulmonary fibrosis: bleomycin-induced model, dosing from three weeks after modelling; settings: for Leucocyte / Lymphocyte / Neutrophil / Ashcroft scores: advanced pulmonary fibrosis, 120 mg/kg/d intragastric, 14 days, from three weeks after model; for Leucocyte / Lymphocyte / Neutrophil: blood, Day 15, twice every day; for Ashcroft scores: lung tissue HE staining
[4] = system: novel coronavirus-induced pulmonary fibrosis model (COVID-19 novel coronavirus strains); assay: Novel coronavirus-induced pulmonary fibrosis model; settings: 120 mg/kg/d intragastric, 14 days; for Ashcroft scores: novel coronavirus + bleomycin, lung tissue HE; for IL-1β / IL-6 / NF-κB / TNF-α: serum, COVID-19 novel coronavirus + bleomycin, from two weeks after model
From the text: Experimental method: an in-vivo novel coronavirus-induced pulmonary fibrosis model was established: C57BL/6 mice (with weights being 22-25 g) were randomly and evenly divided into a plurality of groups, including blank control group, model group, Nintedanib positive control group, hypoxanthine analogue A group, hypoxanthine analogue B group, hypoxanthine analogue C group, compound 1 group, a compound 2 group . . . compound 12 group, with 9 mice in each group. On Day 1, the mice in blank control group were instilled with normal saline nasally, and the mice in other groups were all infected with COVID-19 novel coronavirus strains (30 μL) through nasal instillation. On Day 2, the mice received 5 mg/kg bleomycin through tracheas to induce their pulmonary fibrosis. After the model was established for two weeks, the mice in each group were intragastrically administrated for intervention for consecutive 14 days; the mice in blank control group and model group intragastrically received the same dosage of normal saline as those in drug groups; the mice in Nintedanib positive control group received Nintedanib (120 mg/kg); the mice in hypoxanthine analogue A group, hypoxanthine analogue B group and hypoxanthine analogue C group respectively received hypoxanthine analogue A (120 mg/kg/d), hypoxanthine analogue B (120 mg/kg/d) and hypoxanthine analogue C (120 mg/kg/d); and the mice in compound 1 group, compound 2 group . . . compound 12 group respectively received compound 1 (120 mg/kg/d), compound 2 (120 mg/kg/d) . . . compound 12 (120 mg/kg/d) prepared in example 1. After administration for consecutive 14 days, the mice were observed every day, and their weights and death conditions were recorded. After administration, blood was taken from eyeballs for immediately detecting the expression levels of NF-κB, TNF-α, IL-1 and IL-6 in serum, and lung tissues were taken for HE detection and Ashcroft scoring.

[5] = system: bleomycin-induced pulmonary fibrosis model; assay: Comparison with comparative drugs: bleomycin-induced model, hydroxyproline and TGF-β; settings: 120 mg/kg/d intragastric, twice every day, 14 days, from two weeks after model; Day 15

## CCC(=O)Oc1ncnc2c1ncn2C(C)C [Compound 12]
[1]
  Leucocyte: 6.12 10^9/L
  Lymphocyte: 74.46 10^9/L
  Neutrophil: 21.68 10^9/L
  Ashcroft scores: 1.12
[2]
  Ashcroft scores: 1.31
  IL-1β: 29.9 pg/mL
  IL-6: 64.7 pg/mL
  NF-κB: 28.1 pg/mL
  TNF-α: 90.8 pg/mL
[3]
  Leucocyte: 4.04 10^9/L
  Lymphocyte: 5.65 10^9/L
  Neutrophil: 1.23 10^9/L
  Ashcroft scores: 1.13
[4]
  Ashcroft scores: 1.18
  IL-1β: 38.9 pg/mL
  IL-6: 66.8 pg/mL
  NF-κB: 27.3 pg/mL
  TNF-α: 68.4 pg/mL
[5]
  Hydroxyproline in bronchoalveolar lavage fluids: 0.76 ± 0.08 µg/mg
  Hydroxyproline in lung tissues: 1.41 ± 0.12 µg/mg
  TGF-β in bronchoalveolar lavage fluids: 4.06 ± 0.15 µg/L
  TGF-β in lung tissues: 23.91 ± 2.38 µg/L

## CC(C)Oc1ncnc2[nH]cnc12 [Compound 1]
[1]
  Leucocyte: 7.01 10^9/L
  Lymphocyte: 72.56 10^9/L
  Neutrophil: 21.01 10^9/L
  Ashcroft scores: 1.12
[2]
  Ashcroft scores: 1.21
  IL-1β: 28.8 pg/mL
  IL-6: 63.9 pg/mL
  NF-κB: 26.5 pg/mL
  TNF-α: 87.1 pg/mL
[3]
  Leucocyte: 4.28 10^9/L
  Lymphocyte: 5.33 10^9/L
  Neutrophil: 1.37 10^9/L
  Ashcroft scores: 0.95
[4]
  Ashcroft scores: 1.08
  IL-1β: 36.4 pg/mL
  IL-6: 68.3 pg/mL
  NF-κB: 26.6 pg/mL
  TNF-α: 63.3 pg/mL
[5]
  Hydroxyproline in bronchoalveolar lavage fluids: 0.75 ± 0.04 µg/mg
  Hydroxyproline in lung tissues: 1.45 ± 0.09 µg/mg
  TGF-β in bronchoalveolar lavage fluids: 4.05 ± 0.15 µg/L
  TGF-β in lung tissues: 24.15 ± 1.21 µg/L

## COC(=O)c1ccc2c(c1)NC(=O)/C2=C(\Nc1ccc(N(C)C(=O)CN2CCN(C)CC2)cc1)c1ccccc1 [Nintedanib, reference compound]
[1]
  Leucocyte: 122.15 10^9/L
  Lymphocyte: 565.69 10^9/L
  Neutrophil: 232.24 10^9/L
  Ashcroft scores: 5.45
[2]
  Ashcroft scores: 4.27
  IL-1β: 220.7 pg/mL
  IL-6: 349.1 pg/mL
  NF-κB: 625.2 pg/mL
  TNF-α: 243.6 pg/mL
[3]
  Leucocyte: 46.09 10^9/L
  Lymphocyte: 50.03 10^9/L
  Neutrophil: 40.99 10^9/L
  Ashcroft scores: 4.13
[3]; mice with advanced pulmonary fibrosis, result in words
  inhibition (anti-inflammatory) effect on leucocytes, neutrophils and lymphocytes in blood: obviously inferior
[4]
  Ashcroft scores: 6.04
  IL-1β: 561.2 pg/mL
  IL-6: 523.7 pg/mL
  NF-κB: 732.7 pg/mL
  TNF-α: 539.8 pg/mL
[5]
  Hydroxyproline in bronchoalveolar lavage fluids: 1.25 ± 0.14 µg/mg
  Hydroxyproline in lung tissues: 2.36 ± 0.12 µg/mg
  TGF-β in bronchoalveolar lavage fluids: 7.11 ± 0.24 µg/L
  TGF-β in lung tissues: 75.32 ± 7.51 µg/L

## CC(C)Oc1ncnc2ncn(C(C)C)c12 [Compound 4]
[1]
  Leucocyte: 6.79 10^9/L
  Lymphocyte: 73.37 10^9/L
  Neutrophil: 22.54 10^9/L
  Ashcroft scores: 1.05
[2]
  Ashcroft scores: 1.29
  IL-1β: 29.6 pg/mL
  IL-6: 65.1 pg/mL
  NF-κB: 27.4 pg/mL
  TNF-α: 89.8 pg/mL
[3]
  Leucocyte: 4.26 10^9/L
  Lymphocyte: 5.63 10^9/L
  Neutrophil: 1.34 10^9/L
  Ashcroft scores: 1.24
[4]
  Ashcroft scores: 1.50
  IL-1β: 37.2 pg/mL
  IL-6: 64.5 pg/mL
  NF-κB: 25.2 pg/mL
  TNF-α: 65.9 pg/mL
[5]
  Hydroxyproline in bronchoalveolar lavage fluids: 0.71 ± 0.08 µg/mg
  Hydroxyproline in lung tissues: 1.29 ± 0.08 µg/mg
  TGF-β in bronchoalveolar lavage fluids: 3.95 ± 0.14 µg/L
  TGF-β in lung tissues: 24.58 ± 1.95 µg/L
